“Also recorded” adds a separate entry of the source. Read-outs that look alike come from different tables or passages of the source.
Legend:
[1] = system: lymphocytes; assay: Lymphocyte viability (CCK-8); type: cell-based, mouse; settings: c = 40 μM
[2] = system: lymphocytes; assay: Lymphocyte viability (CCK-8); type: cell-based, mouse; settings: c = 20 μM
Experimental: (§1) As previously described, the immunosuppressive activity, lymphocyte viability, and antiproliferative activity against HaCaT cells were evaluated using the CCK-8 method ([Zhao et al. 2023], [2024]).
(§2) In the immunosuppressive and lymphocyte viability, the primary tested concentration of all compounds was 20.0 μM, and dexamethasone (Dex) (c = 2.0 μM) was used as a positive control. In the antiproliferative activity against HaCaT cells, the primary tested concentration of all compounds was 40 μM, and the positive control was methotrexate (MTX) (c = 40.0 μM). When the inhibition rates are greater than 50%, the IC50 values of active compounds will be further tested and calculated. All experiments were performed in triplicate.

[3] = system: ConA-induced T lymphocytes; assay: Anti-proliferative activity against ConA-induced T lymphocytes (CCK-8); type: cell-based; settings: Mus musculus, T-lymphocyte, c = 40 μM, read-out: Inhibition rate (%) T
[4] = system: ConA-induced T lymphocytes; assay: as above; type: cell-based; settings: Mus musculus, T-lymphocyte
Experimental: as §1, §2

[5] = system: LPS-induced B lymphocytes; assay: Anti-proliferative activity against LPS-induced B lymphocytes (CCK-8); type: cell-based; settings: Mus musculus, Lymphocyte, c = 40 μM, read-out: Inhibition rate (%) B
[6] = system: LPS-induced B lymphocytes; assay: as above; type: cell-based, mouse; settings: for IC50: induced proliferation of B lymphocytes (LPS), CCK-8, read-out: B cells IC50
Experimental: as §1, §2

[7] = system: IFN-γ; assay: Cytokine analysis by ELISA of induced T cells: IFN-γ; type: cell-based, mouse; settings: ConA-induced T cells, 48 h; all sample groups; P < 0.0001 vs. model
Experimental: (§3) The mononuclear cell suspensions (2 × 10^5 cells/well) were cultured with ConA (5 μg/mL) in 96-well plates, and indicated concentrations of compounds 2, 15, and 32 were added simultaneously. After a 48-hour culture period, cytokines in the supernatants were quantified using mouse IFN-γ, IL-2, and IL-17A ELISA kits (Mabtech, Sweden), following the manufacturer’s protocol ([Jing et al. 2021]; [Zhao et al. 2024]).

[8] = system: IL-2; assay: Cytokine analysis by ELISA of induced T cells: IL-2; type: cell-based, mouse; settings: 40 μM; ConA-induced T cells, 48 h; P < 0.01 vs. model
Experimental: as §3

[9] = Lymphocyte viability (CCK-8); type: cell-based, mouse; settings: mouse, lymphocytes; lymphocyte viability; CCK-8
Experimental: as §1, §2

[10] = system: HaCaT cells; assay: Antiproliferative activity against HaCaT cells (CCK-8); type: cell-based; settings: Homo sapiens, HaCaT, read-out: IC50 against the proliferation of HaCaT cells
Experimental: as §1, §2

[11] = system: induced T cells (Con A 5 μg/mL); assay: EdU proliferation assay, induced T cells; type: cell-based, mouse; settings: c = 10 μM; relative to the model group
Experimental: (§4) EdU fluorescence labeling for cell proliferation of induced T/B lymphocytes (2 × 10^5 cells/well) and HaCaT cells (1 × 10^4 cells/well) of active compounds 10, 19, 23, 32, 38, and 41 (final concentration 10 or 20 μM) was performed as previously reported ([Biram and Shulman 2020]; [Zhao et al. 2024]). EdU (HF488) (the Click-iT™ EdU Flow Cytometry Assay Kit, APExBIO, USA) was added 24 h (final concentration 50 μM, T and B cells) and 4 h (final concentration 10 μM, HaCaT cells) before harvesting the cells. All procedures were performed according to the manufacturer’s instructions for the click reaction. EdU-positive cells and proliferating phase cells were analyzed with a fluorescence microscope.

[12] = system: NF-κB p65 phosphorylation; assay: Immunofluorescence of p-p65/p65 in HaCaT cells; type: cell-based; settings: 27.0 μM, 36 h, P < 0.01 vs. Con
Experimental: The immunofluorescence protocol was performed using the reported method ([Zhao et al. 2024]). HaCaT cells (2.0 × 10^5 cells/well) were plated onto 6-well plates with glass coverslips and adhered overnight (12 h) before compound addition. After treatment with active compounds 10 (final concentration 31 μM) and 32 (final concentration 27 μM) for 36 h, the supernatant was removed, and the cells were washed twice with PBS, fixed with 4% paraformaldehyde for 15 min, and then washed with PBS three times. After blocking, incubated with NF-κB p65 (p65)/phosphorylated NF-κB p65 (p-p65) antibodies and secondary antibodies (Servicebio, China). Then, cells were counterstained with 4,6-[…]-2-phenylindole (DAPI) for 5 min. After the PBS washing, fluorescent seal liquid was added, and the plate was monitored under an imaging system (Pannoramic MIDI, 3Dhistech, Hungary). The nucleus is blue, and positive cells are green (p-p65) or red (p65). The immunofluorescence areas for each indicator were analyzed in ImageJ.

[13] = system: HaCaT cells; assay: EdU proliferation assay, HaCaT cells; type: cell-based; settings: c = 20 μM; compared to the control group
Experimental: as §4

[14] = system: induced B cells (LPS 15 μg/mL); assay: EdU proliferation assay, induced B cells; type: cell-based, mouse; settings: c = 10 μM; relative to the model group
Experimental: as §4

[15] = system: IL-17A; assay: Cytokine analysis by ELISA of induced T cells: IL-17A; type: cell-based, mouse; settings: 10 μM; ConA-induced T cells, 48 h; P < 0.01 vs. model
Experimental: as §3

Compound	Cell validity (%) [1] [%]	Cell validity (%) [2] [%]	inhibition at 40 µM [3] [%]	inhibition at 20 µM ([4]; c = 20 μM, ConA-induced T lymphocytes, read-out: Inhibition rate (%) T) [%]	inhibition at 40 µM [5] [%]	inhibition at 20 µM ([6]; Mus musculus, Lymphocyte, c = 20 μM, LPS-induced B lymphocytes, read-out: Inhibition rate (%) B) [%]	IFN-γ secretion [7]	IL-2 levels [8]	CC50 [9] [µM]	IC50 [10] [µM]	IC50 ([4]; induced proliferation of T lymphocytes (ConA), CCK-8, read-out: T cells IC50) [µM]	proliferation of induced T cells measured by EdU [11]	NF-κB activation (ratio p-p65/p65) [12]	proliferation rates of HaCaT cells measured by EdU [13]	IC50 ([6]; Mus musculus, Lymphocyte) [µM]	IC50 [6] [µM]	proliferation of induced B cells measured by EdU [14]	IL-17A levels [15]
C[C@]1(CCO)CC[C@H]2C(=CC[C@@H]3[C@]2(C)CCC[C@]3(C)C(=O)O)C1 [Compound 15, 16-hydroxyisopimar-7-en-19-oic acid]	80.2 ± 1.8	89.9 ± 7.5	28.8 ± 5.8	26.4 ± 6.3	29 ± 12.2	23 ± 4.3	significant reduction; also recorded: significantly reduced	significantly reduced										
CO[C@@H]1C=C2[C@@H]3CC[C@H]([C@H](C)/C=C/[C@H](C)C(C)C)[C@@]3(C)CC[C@@H]2[C@@]2(C)CC[C@H](O)C[C@]12O [Compound 32, (3β,5α,6β,22E)-6-methoxyergosta-7,22-diene-3,5-diol]							significant reduction; also recorded: significantly reduced		> 20	27 ± 1.3	3.1 ± 0.2	significantly suppressed the proliferation	significantly attenuated NF-κB activation	significantly reduced	8 to 20	6 ± 0.3	significantly suppressed the proliferation	markedly lowered; also recorded: inhibiting IL-17A secretion

Reference: publication PMC12365674, “Diverse metabolites with anti-psoriasis potential from different fermentations of the fungicolous fungus Xylarialongipes HFG1018” (IMA Fungus, 2025)
